Data taken from patent US11859248B2, “Nucleic acid modification and identification method” (IMBA—INSTITUT FÜR MOLEKULARE BIOTECHNOLOGIE GMBH, priority 2017, dated 2024).
Like-named read-outs stand apart in the source and are kept apart here.

Tests used:
[1] = system: mES cells; experiment: Cell viability assay (CellTiter-Glo) of mES cells cultured with s^4U; format: cell-based, mouse; conditions: for EC50: Mus musculus, read-out: EC50 of compromised cell viability
Experimental: 5000 mES cells were seeded per 96 well the day before the experiment. Medium containing different concentrations of s^4U (as indicated) was added to the cells for 12 h or 24 h. Cell viability was assessed by CellTiter-Glo® Luminescent Cell Viability Assay (Promega) according to the instructions of the manufacturer. Luminescent signal was measured on Synergy using Gen5 Software (v2.09.1).
We tested the ability of mouse embryonic stem cells to tolerate s^4U metabolic RNA-labeling after 12 h or 24 h at varying s^4U concentrations (FIG. 6A). […] Under these conditions, we detected a steady increase in s^4U-incorporation in total RNA preparation 3 h, 6 h, 12 h, and 24 h post labeling, as well as a steady decrease 3 h, 6 h, 12 h, and 24 h after uridine chase (FIG. 6B). As expected, the incorporation follows a single exponential kinetics, with a maximum average incorporation of 1.78% s^4U, corresponding to one s^4U incorporation in every 56 uridines in total RNA (FIG. 6C). These experiments establish s^4U-labeling conditions in mES cells, which can be employed to measure RNA biogenesis and turnover rates under unperturbed conditions.

[2] = system: reverse transcriptases (Superscript II, Superscript III, Quant-seq RT); experiment: Reverse transcription of synthetic thiol-nucleotide-containing RNA followed by high-throughput sequencing; format: biochemical; conditions: after iodoacetamide-treatment
Experimental: Primer extension assays were essentially performed as described previously by Nilsen et al. (Cold Spring Harb Protoc. 2013, 1182-1185). Briefly, template RNA oligonucleotides (5L-let-7-3L or 5L-let-7-s^4Up9-3L; Dharmacon; see Table for sequences) were deprotected according to the instructions of the manufacturer and purified by denaturing polyacrylamide gel-elution. 100 μM purified RNA oligonucleotides were treated with 10 mM iodoacetamide (+IAA) or EtOH (−IAA) in standard reaction conditions (50% DMSO, 50 mM sodiumphosphate buffer, pH 8) for 15 min at 50° C. The reaction was stopped by addition of 20 mM DTT, followed by ethanol precipitation. RT primer (see Table for sequence) was 5′ radiolabeled using γ-^32P-ATP (Perkin-Elmer) and T4-polynucleotide kinase (NEB), followed by denaturing polyacrylamide gel-purification. 640 nM γ-^32P-RT primer was annealed to 400 nM 5L-let-7-3L or 5L-let-7-s^4Up9-3L in 2× annealing buffer (500 mM KCl, 50 mM Tris pH 8.3) in a PCR machine (3 min 95° C., 30 sec 85° C. Ramp 0.5° C./s, 5 min 25° C. Ramp 0.1° C./s). Reverse transcription was performed using Superscript II (Invitrogen), Superscript III (Invitrogen), or Quant-seq RT (Lexogen) as recommended by the manufacturer. For dideoxynucleotide reactions, a final concentration of 500 μM ddNTP (as indicated) was added to RT reactions. Upon completion, RT reactions were resuspended in formamide loading buffer (Gel loading buffer II, Thermo Fisher Scientific) and subjected to 12.5% denaturing polyacrylamide gel electrophoresis. Gels were dried, exposed to storage phosphor screen (PerkinElmer), imaged on a Typhoon TRIO variable mode imager (Amersham Biosciences), and quantified using ImageQuant TL v7.0 (GE Healthcare). […]
For sequencing analysis of synthetic RNA samples (FIG. 5) barcoded libraries were demultiplexed using Picard Tools BamIndexDecoder v1.13 allowing 0 mismatches in the barcode. […] Remaining aligned reads were converted to pileup format. […] Output table was analyzed and plotted in Excel v15.22 (Microsoft) and Prism v7.0a (GraphPad). […]

O=c1[nH]c(=S)ccn1[C@@H]1O[C@H](CO)[C@@H](O)[C@H]1O [s^4U, 4-thiouridine]
effect on cell viability ([1]; 100 μM s^4U): did not severely affect cell viability | EC50 ([1]; 12 h labeling): 3100 µM | EC50 ([1]; 24 h labeling): 380 µM | increase in T to C conversion [2]: 8.5 fold | mutation rate (T to C) ([2]; all tested RTs): more than 0.94
